Results as given in PubChem BioAssay (NCI).
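Assay format: 96-well plates, 48-hour exposure. Abbreviation: GI50, concentration required for 50% inhibition of growth. TGI denotes the concentration required for complete inhibition of growth.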

Key:
Assay in all cases: NCI tumour cell line growth inhibition, 48 h
BT-549 breast = tested on: BT-549 breast
NCI-H226 lung = tested on: NCI-H226 lung
OVCAR-5 ovarian = tested on: OVCAR-5 ovarian
NCI/ADR-RES ovarian = tested on: NCI/ADR-RES ovarian
RPMI-8226 leukemia = tested on: RPMI-8226 leukemia
A549 NSCLC = tested on: A549 NSCLC
MOLT-4 leukemia = tested on: MOLT-4 leukemia
T-47D breast = tested on: T-47D breast
SF-539 CNS = tested on: SF-539 CNS
MCF7 breast = tested on: MCF7 breast

Compound	GI50 (BT-549 breast)	TGI (BT-549 breast)	GI50 (NCI-H226 lung)	TGI (NCI-H226 lung)	GI50 (OVCAR-5 ovarian)	TGI (OVCAR-5 ovarian)	GI50 (NCI/ADR-RES ovarian)	TGI (NCI/ADR-RES ovarian)	GI50 (RPMI-8226 leukemia)	TGI (RPMI-8226 leukemia)	GI50 (A549 NSCLC)	TGI (A549 NSCLC)	GI50 (MOLT-4 leukemia)	TGI (MOLT-4 leukemia)	GI50 (T-47D breast)	TGI (T-47D breast)	GI50 (SF-539 CNS)	TGI (SF-539 CNS)	GI50 (MCF7 breast)	TGI (MCF7 breast)
C=C1C(=O)O[C@H]2[C@H]1CC/C(COC(=O)CSCSCC(=O)OC/C1=C/CC[C@@]3(C)O[C@H]3[C@H]3OC(=O)C(=C)[C@@H]3CC1)=C\CC[C@@]1(C)O[C@@H]21	1.47 µM	2.91 µM	3.51 µM	13.9 µM	1.95 µM	3.92 µM	3.25 µM	12.3 µM	0.597 µM	3.71 µM	2.44 µM	6.23 µM	0.505 µM	3.09 µM	1.53 µM	3.7 µM	1.47 µM	2.89 µM	0.642 µM	2.25 µM
C=C(C)[C@@H]1CC[C@]2(C)CC[C@]3(C)[C@H](CC[C@@H]4[C@@]5(C)CC[C@H](O)C(C)(C)[C@@H]5CC[C@]43C)[C@@H]12	–	29.3 µM	–	> 86.5 µM	–	> 100 µM	–	> 100 µM	–	> 100 µM	–	> 100 µM	–	> 70.3 µM	–	> 100 µM	–	> 100 µM	–	55.2 µM
COc1ncnc2c(-c3ccccc3)cn(COCc3ccccc3)c12	2.57 µM	7.6 µM	2.03 µM	8.12 µM	47.8 µM	> 100 µM	3.17 µM	19.1 µM	2.03 µM	13 µM	3.3 µM	28.7 µM	2.7 µM	7.12 µM	3.04 µM	9.84 µM	11.8 µM	> 100 µM	2.53 µM	9.32 µM
N=C1C(c2nc3ccccc3s2)=C(O)CN1c1ccc(F)c(Cl)c1	30.2 µM	> 100 µM	6.11 µM	55.4 µM	35.9 µM	> 100 µM	26.9 µM	80.6 µM	18.9 µM	> 100 µM	11.2 µM	62.2 µM	19.6 µM	> 100 µM	72.5 µM	> 100 µM	8.36 µM	30.9 µM	40.3 µM	> 100 µM
N#Cc1ccc(OCc2nc(N)nc(N)c2-c2ccc(Cl)c(Cl)c2)cc1	9.98 µM	> 100 µM	4.86 µM	> 100 µM	2.38 µM	> 100 µM	1.55 µM	> 100 µM	5.42 µM	> 100 µM	0.405 µM	15.8 µM	3.7 µM	40.8 µM	9.64 µM	> 100 µM	0.802 µM	37.5 µM	2.51 µM	34.5 µM
CCCCCCCCNc1cc2c3c(c1)CCCN3CCC2	2.28 µM	12.3 µM	2.46 µM	16.4 µM	3.88 µM	17.5 µM	19.7 µM	> 100 µM	5.55 µM	> 100 µM	4.26 µM	19.3 µM	1.09 µM	> 100 µM	1.34 µM	21 µM	2.81 µM	17 µM	2.98 µM	13 µM
COc1ccc(/C=C/C(=O)c2cc(OC)c(OC)c(OC)c2)cc1OCc1cn(Cc2ccc(F)cc2)nn1	3.45 µM	27.7 µM	2.26 µM	7.67 µM	3.22 µM	> 100 µM	2.99 µM	> 100 µM	1.7 µM	6.3 µM	2.63 µM	9.13 µM	3.97 µM	68.5 µM	3.05 µM	> 100 µM	2.49 µM	7.83 µM	2.43 µM	> 100 µM
O=C(Oc1cccc(F)c1OC(=O)c1cccc(O)c1)c1cccc(O)c1	24.4 µM	> 100 µM	45.3 µM	> 100 µM	> 100 µM	> 100 µM	10.3 µM	77.6 µM	14.5 µM	> 100 µM	24.6 µM	> 100 µM	15.9 µM	> 100 µM	23.1 µM	79.1 µM	16.9 µM	> 100 µM	34.9 µM	> 100 µM
